Some results are limits rather than exact numbers.

Series [1] relates to α1‐antitrypsin. The series is described as follows: SYPRO Orange thermal shift assay. Type of series: biochemical, human. To be noted: 50μM GSK716. The source says:
Polymerisation of α1‐antitrypsin involves transition through a transient intermediate state known as M*, that is readily populated by the Z variant (Dafforn et al, 1999; Knaupp et al, 2010). The M* conformational ensemble appears to be a distinct species between the native state conformation and that of the final polymer. One of the hallmarks of M* is its recognition by environment‐sensitive fluorescent reporter dyes. Thermal shift assays that make use of the dye SYPRO Orange report the stability of the protein native state against heat‐induced unfolding. […] Native state stability can also be probed by equilibrium unfolding using chemical denaturants, where a peak in bis‐ANS fluorescence corresponds with a maximally populated unfolding intermediate (James & Bottomley, 1998). […] The association of GSK716 induced a marked quenching and blue‐shift of the α1‐antitrypsin intrinsic tryptophan fluorescence spectrum (Fig 4D, inset). The rate of change in fluorescence during association of 10µM GSK716 was proportional to the propensity of α1‐antitrypsin mutants to form polymers in vivo: inert (M), mild (S), moderate (Baghdad) and severe (Z) α1‐antitrypsin (Fig 4D, top and bottom). […]

Series [2] addresses T1, α1‐antitrypsin (Homo sapiens, UniProt P01009, E366K).
T1 construct: random insertion of the human Z α1‐antitrypsin gene; from tissue; host or cells: hemizygous Z α1-antitrypsin transgenic mice (liver, plasma)
The series is described as follows: Intrahepatic α1‐antitrypsin by ELISA in Z α1‐antitrypsin transgenic mice. In kind it is in vivo, mouse. As for the experimental part:
Since GSK716 blocks polymer formation in cells, we explored the effect of dosing GSK716 on liver polymer levels. […] GSK716 was dosed at 100 mg/kg three times a day for 20 days. […] Liver polymer levels were investigated by staining with 2C1 anti‐polymer monoclonal antibody and were scored blind by a pathologist or by quantification using an algorithm to measure all areas of positive staining (Fig EV1). There was no difference observed in total liver polymer load when assessed by manual or quantitative scoring (Fig 6B and C). There was no significant fibrosis in any of the liver sections. Intrahepatic α1‐antitrypsin was also assessed by ELISA. The vast majority (95–100%) of α1‐antitrypsin within the liver was polymer with the monomer typically being below the level of detection. Treatment with GSK716 increased the monomer measured in liver homogenate by approx. fourfold in keeping with the changes seen in blood.

For series [3], the target named is NK1 (TACR1) (Homo sapiens, UniProt P25103). Briefly: Off‐target panel: NK1 (TACR1). In kind it is cell-based. To be noted: Antagonist, read-out: Mean (PXC50). The method, then:
(§1) GSK716 selectivity and PK properties were profiled in order to investigate the suitability of GSK716 for progression into in vivo studies and the potential for taking it forward as a clinical candidate for testing in humans. Since GSK716 results in loss of inhibitory activity of α1‐antitrypsin, the effect of the compound was assessed on other closely related serpins. […] Furthermore, there were no off‐target effects in a panel of assays considered predictive of known safety liabilities that precluded further development of GSK716 (Table EV1).

In series [4] the target is OPRK1 (Homo sapiens, UniProt P41145). Briefly: Off‐target panel: OPRK1. Type of series: cell-based. As for the experimental part: as §1
Series [5] deals with Phospholipidosis. The series is described as follows: Off‐target panel: Phospholipidosis. In kind it is cell-based. The following applies: Induction (pMEC). The method, then:
as §1

Series [6] addresses Vasopressin V1a (Homo sapiens, UniProt P37288). Briefly: Off‐target panel: Vasopressin V1a. Type of series: cell-based. The following applies: Antagonist, read-out: Mean (PXC50) (converted). The method, then:
as §1

NK1 (TACR1), sequence (P25103 whole entry, species assumed): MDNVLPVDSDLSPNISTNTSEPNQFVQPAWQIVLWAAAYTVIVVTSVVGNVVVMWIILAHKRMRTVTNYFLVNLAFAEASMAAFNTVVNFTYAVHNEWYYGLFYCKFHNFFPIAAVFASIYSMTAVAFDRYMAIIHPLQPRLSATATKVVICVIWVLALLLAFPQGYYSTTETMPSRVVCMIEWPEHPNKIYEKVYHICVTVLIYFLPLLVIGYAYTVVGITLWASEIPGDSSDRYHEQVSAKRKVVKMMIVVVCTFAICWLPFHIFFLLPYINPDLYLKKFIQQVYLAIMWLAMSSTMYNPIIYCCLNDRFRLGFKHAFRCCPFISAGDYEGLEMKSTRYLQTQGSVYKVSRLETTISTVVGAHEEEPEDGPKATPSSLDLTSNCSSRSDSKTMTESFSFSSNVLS
T1 sequence (P01009 25-418 E366K): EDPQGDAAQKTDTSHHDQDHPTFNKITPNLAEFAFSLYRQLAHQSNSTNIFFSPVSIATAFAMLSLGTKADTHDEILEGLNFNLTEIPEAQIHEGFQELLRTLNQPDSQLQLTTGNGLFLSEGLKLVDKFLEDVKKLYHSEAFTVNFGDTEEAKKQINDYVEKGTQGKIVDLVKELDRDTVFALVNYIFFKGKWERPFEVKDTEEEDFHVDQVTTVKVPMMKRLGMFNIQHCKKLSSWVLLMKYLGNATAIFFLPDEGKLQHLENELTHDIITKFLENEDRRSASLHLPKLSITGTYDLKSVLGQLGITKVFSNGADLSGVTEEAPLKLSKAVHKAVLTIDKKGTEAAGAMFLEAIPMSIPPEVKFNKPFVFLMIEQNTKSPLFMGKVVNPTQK
OPRK1, sequence (P41145 whole entry, species assumed): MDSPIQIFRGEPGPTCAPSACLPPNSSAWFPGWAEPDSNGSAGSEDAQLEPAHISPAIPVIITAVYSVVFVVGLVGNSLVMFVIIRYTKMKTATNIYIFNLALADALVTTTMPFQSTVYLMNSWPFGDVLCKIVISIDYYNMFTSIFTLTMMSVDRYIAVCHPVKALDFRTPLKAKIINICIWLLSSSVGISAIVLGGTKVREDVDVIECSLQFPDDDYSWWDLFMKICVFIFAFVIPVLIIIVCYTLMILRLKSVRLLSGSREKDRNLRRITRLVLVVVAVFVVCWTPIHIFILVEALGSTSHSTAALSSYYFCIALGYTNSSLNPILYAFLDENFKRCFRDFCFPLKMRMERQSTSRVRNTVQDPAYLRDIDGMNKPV
Vasopressin V1a, sequence (P37288 whole entry): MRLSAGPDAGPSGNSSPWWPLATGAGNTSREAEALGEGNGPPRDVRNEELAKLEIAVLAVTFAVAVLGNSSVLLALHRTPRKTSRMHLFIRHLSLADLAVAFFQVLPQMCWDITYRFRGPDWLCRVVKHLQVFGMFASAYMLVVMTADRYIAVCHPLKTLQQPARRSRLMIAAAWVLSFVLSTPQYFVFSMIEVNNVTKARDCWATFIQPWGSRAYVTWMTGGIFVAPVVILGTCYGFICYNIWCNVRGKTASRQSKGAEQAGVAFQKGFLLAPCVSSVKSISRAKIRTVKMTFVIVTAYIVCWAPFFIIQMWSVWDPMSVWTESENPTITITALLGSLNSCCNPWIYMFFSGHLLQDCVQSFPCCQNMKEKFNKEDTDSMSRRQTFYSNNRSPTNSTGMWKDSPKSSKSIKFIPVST

As to `CCC[C@@H](NC(=O)c1cccc2c1CC(=O)N2)[C@@H](O)c1cccc(F)c1C` [GSK716], the transition midpoint temperature entry in series [1] is “marked increase”. Also, the “increase of monomer measured in liver homogenate” value in series [2] is given as “approx. fourfold”. For the same molecule, the IC50 in series [3] was > 25.1 µM; in series [6], 39.8 µM. Also, in series [4], the EC50 was > 100 µM. For the same molecule, the “Mean (PXC50): pMEC” value in series [5] is recorded as “pMEC= 5.8”.
